# Measurements as given in the supplement of paper PMC10307832.
# Columns and labels:
# Assay in all cases: relative viability (nuclei count vs DMSO), 5 days (fraction); higher = more cells survive
# MK-2206 + Bortezomib = compound: NC1(c2ccc(-c3nc4ccn5c(=O)[nH]nc5c4cc3-c3ccccc3)cc2)CCC1 [MK-2206] + CC(C)C[C@H](NC(=O)[C@H](Cc1ccccc1)NC(=O)c1cnccn1)B(O)O [Bortezomib] (partner 0.002 µM)
# Method in brief: (§1)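 Values are medians from duplicate plates. Each reflects relative viability, defined as the nuclei count of treated wells over that of vehicle wells. Lung cancer cell lines in 1536-well plates were pin-tool dosed one day after seeding with one drug alone or with a fixed anchor-drug dose plus five library-drug doses (not always all listed) in √10 steps, then fixed, stained and imaged at 4× after 5 days.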
# MK-2206 + Linsitinib = compound: NC1(c2ccc(-c3nc4ccn5c(=O)[nH]nc5c4cc3-c3ccccc3)cc2)CCC1 [MK-2206] + C[C@]1(O)C[C@@H](c2nc(-c3ccc4ccc(-c5ccccc5)nc4c3)c3c(N)nccn32)C1 [Linsitinib] (partner 1 µM)
# Method in brief: as §1
# Pictilisib + Bortezomib = compound: CS(=O)(=O)N1CCN(Cc2cc3nc(-c4cccc5[nH]ncc45)nc(N4CCOCC4)c3s2)CC1 [Pictilisib] + CC(C)C[C@H](NC(=O)[C@H](Cc1ccccc1)NC(=O)c1cnccn1)B(O)O [Bortezomib] (partner 0.002 µM)
# Method in brief: as §1
# Pictilisib + AZD7762 = compound: CS(=O)(=O)N1CCN(Cc2cc3nc(-c4cccc5[nH]ncc45)nc(N4CCOCC4)c3s2)CC1 [Pictilisib] + NC(=O)Nc1cc(-c2cccc(F)c2)sc1C(=O)N[C@H]1CCCNC1 [AZD7762] (partner 0.2 µM)
# Method in brief: as §1
# MK-2206 + Lapatinib = compound: NC1(c2ccc(-c3nc4ccn5c(=O)[nH]nc5c4cc3-c3ccccc3)cc2)CCC1 [MK-2206] + CS(=O)(=O)CCNCc1ccc(-c2ccc3ncnc(Nc4ccc(OCc5cccc(F)c5)c(Cl)c4)c3c2)o1 [Lapatinib] (partner 2 µM)
# Method in brief: as §1
Cell Line,relative viability (MK-2206 + Bortezomib; first compound 0.01 µM),relative viability (MK-2206 + Bortezomib; first compound 0.03162 µM),relative viability (MK-2206 + Bortezomib; first compound 0.3162 µM),relative viability (MK-2206 + Bortezomib; first compound 1 µM),relative viability (MK-2206 + Linsitinib; first compound 0.01 µM),relative viability (MK-2206 + Linsitinib; first compound 0.03162 µM),relative viability (MK-2206 + Linsitinib; first compound 0.3162 µM),relative viability (MK-2206 + Linsitinib; first compound 1 µM),relative viability (Pictilisib + Bortezomib; first compound 0.02 µM),relative viability (Pictilisib + Bortezomib; first compound 0.06325 µM),relative viability (Pictilisib + Bortezomib; first compound 0.6325 µM),relative viability (Pictilisib + Bortezomib; first compound 2 µM),relative viability (Pictilisib + AZD7762; first compound 0.02 µM),relative viability (Pictilisib + AZD7762; first compound 0.06325 µM),relative viability (Pictilisib + AZD7762; first compound 0.6325 µM),relative viability (Pictilisib + AZD7762; first compound 2 µM),relative viability (MK-2206 + Lapatinib; first compound 0.01 µM),relative viability (MK-2206 + Lapatinib; first compound 0.03162 µM),relative viability (MK-2206 + Lapatinib; first compound 0.3162 µM),relative viability (MK-2206 + Lapatinib; first compound 1 µM)
HCC-366,1.01,0.982,1.04,1.02,0.637,0.675,0.364,0.384,1.08,1.01,0.691,0.189,0.316,0.259,0.204,0.0615,1.05,1.09,1.08,1.16
BEN,0.775,0.821,1,0.528,0.924,1.01,1.04,1.03,0.811,0.941,0.762,0.489,0.809,0.808,0.745,0.447,0.679,0.658,0.697,0.657
NCI-H2347,0.914,1.11,1.06,0.92,0.906,1,0.848,0.952,1.05,1.12,0.938,0.567,0.796,0.806,0.546,0.396,0.845,1.06,0.887,0.953
NCI-H650,0.898,0.932,0.642,0.656,0.809,1.04,0.798,0.791,1.04,0.938,0.526,0.445,0.806,0.95,0.998,0.655,0.985,1.07,0.874,0.721
NCI-H1975,0.464,0.34,0.28,0.261,1.02,0.81,0.679,0.72,0.358,0.443,0.284,0.239,0.816,0.62,0.466,0.225,0.837,0.996,0.781,0.534
NCI-H2126,1.09,1.11,1.07,1.06,0.742,0.634,0.63,0.686,1.05,1.15,1.07,0.923,1.02,1.01,0.956,0.716,0.803,0.739,0.75,0.737
NCI-H2087,0.763,0.875,0.807,0.69,0.965,0.906,0.791,0.914,0.733,0.772,0.953,0.503,1.39,1.29,1.29,0.952,1.03,1.41,1.07,0.805
